Experimental data as given in patent US7223793B2, “Phenolic acid derivatives and composition for preventing or treating blood lipid level-related diseases comprising the same” (Bionutrigen Co., Ltd., priority 2001, dated 2007).
Marks after values point to notes of the source that are not given here.

Columns and labels:
HMG-CoA reductase = biological target: T1, HMG-CoA reductase (Rattus norvegicus, UniProt P51639); assay: HMG-CoA reductase activity in liver microsomes of treated rats (Experimental Example 6, Step 4); type: in vivo; design: HMG-CoA reductase: unit not given here; conditions: for HMG-CoA reductase: activity in liver microsomes of rats fed 6 weeks, CoA-SH by absorbance at 412 nm, average; for Inhibition of HMG-CoA reductase activity: liver microsomes of rats fed 6 weeks, relative to control group
T1 construct: the supernatant was ultracentrifuged (100,000×g for 60 minutes) to obtain microsomal precipitates; from tissue; host or cells: liver microsomes of treated rats
T1 sequence (P51639 1-887): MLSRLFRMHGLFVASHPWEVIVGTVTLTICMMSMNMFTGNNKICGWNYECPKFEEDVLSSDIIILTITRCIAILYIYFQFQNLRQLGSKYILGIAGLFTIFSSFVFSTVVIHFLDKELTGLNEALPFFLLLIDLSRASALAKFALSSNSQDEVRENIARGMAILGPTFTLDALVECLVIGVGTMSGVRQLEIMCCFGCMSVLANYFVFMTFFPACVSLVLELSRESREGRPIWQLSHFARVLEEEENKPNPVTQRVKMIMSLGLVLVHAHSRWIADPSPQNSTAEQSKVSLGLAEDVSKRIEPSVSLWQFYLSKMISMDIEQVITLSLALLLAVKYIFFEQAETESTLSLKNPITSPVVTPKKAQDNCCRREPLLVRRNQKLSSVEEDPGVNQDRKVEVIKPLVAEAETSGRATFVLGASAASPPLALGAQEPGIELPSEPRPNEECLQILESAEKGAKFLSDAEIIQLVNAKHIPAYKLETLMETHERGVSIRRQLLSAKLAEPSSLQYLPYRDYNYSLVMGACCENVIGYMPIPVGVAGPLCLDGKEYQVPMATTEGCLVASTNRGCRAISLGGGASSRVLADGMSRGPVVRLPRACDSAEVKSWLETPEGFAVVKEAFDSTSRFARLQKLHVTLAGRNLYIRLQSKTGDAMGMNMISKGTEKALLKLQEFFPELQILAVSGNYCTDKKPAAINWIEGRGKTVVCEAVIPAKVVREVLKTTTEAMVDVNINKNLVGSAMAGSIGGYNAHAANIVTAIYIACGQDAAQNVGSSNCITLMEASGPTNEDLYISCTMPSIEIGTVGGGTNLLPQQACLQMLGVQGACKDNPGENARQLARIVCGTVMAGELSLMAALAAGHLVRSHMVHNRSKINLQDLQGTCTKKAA
Description: In order to measure the activity of HMG-CoA reductase, the method described by Hulcher et al. (J. Lipid Res., 14, 625-641 (1973)) was employed after some modification. In this method, the concentration of the coenzyme-A (CoA-SH), which is produced when HMG-CoA is reduced to a mevalonate salt by the action of HMG-CoA reductase, is determined by spectroscopy and the activity of HMG-CoA reductase is calculated therefrom.
3 g of liver tissue taken from each sacrificed rat of Step 2 was washed successively with 100 ml of a cold Saline (0.15M NaCl) and 100 ml of a cold buffer solution A (0.1M triethanolamine, HCl/0.2M EDTA/2 mM dithiothreitol). The cold buffer solution A was added to the liver tissue in an amount of 2 ml per 1 g of the liver tissue and the mixture was homogenized with a homogenizer. The homogenate was centrifuged (15,000×g for 15 minutes), and then, the supernatant was ultracentrifuged (100,000×g for 60 minutes) to obtain microsomal precipitates. The precipitates thus obtained were washed with 2 mL of a cold buffer solution A and ultracentrifuged (100,000×g for 60 minutes) to obtain precipitates. The precipitates thus obtained were washed with a 1 mL of cold buffer solution A and kept in a 1.5 mL tube at −70° C.
The reaction substrates used in the measurement of HMG-CoA reductase activity were as follows:
i) buffer solution B: 0.1M triethanolamine, HCl/0.02M EDTA (pH7.4),
ii) HMG-CoA solution: 150 mmoles/culture medium, and
iii) NADPH solution: 2 mmoles/culture medium.
The suspension (microsome) prepared in the above was mixed with the reaction substrate and the resulting mixture was placed in a centrifugation tube and reacted at 37° C. for 30 minutes. The reaction mixture was treated with 20 μl of 0.1M sodium arsenite and allowed to stand for 1 minute. Then, the mixture was reacted with 100 μl of citrate buffer solution (2M citrate/3% sodium tungstate, pH 3.5) at 37° C. for 10 minutes followed by centrifugation (25,000×g for 15 minutes) to remove protein. 1 mL of the supernatant thus obtained was transferred into a tube with a cap and 0.2 mL of 2M tris-HCl solution (pH 10.6) and 0.1 ml of 2M tris-HCl solution (pH 8.0) were added thereto to adjust the pH of the reaction to 8.0. Then, the reaction was mixed with 20 μl of DTNB buffer solution (3mM DTNB/0.1M triethanolamine/0.2M EDTA, pH 7.4) and the absorbance of the mixture was determined at 412 nm to calculate the amount of CoA-SH (activity of HMG-COA reductase). The inhibition of HMG-CoA reductase activity of the control and treated groups were calculated based on the above results.

[1] = test system: New Zealand White rabbits; assay: Histological observation of the organs of treated rabbits (Experimental Example 7, Step 5); type: in vivo, rabbit; conditions: 8 weeks
From the text: Tissues of the lung, myocardium, kidney and muscle taken from the rabbits treated with the phenolic acid derivatives (BN30063, BN30064, BN30067) were visually examined for pathological changes using a microscope.

[2] = test system: New Zealand White rabbits; assay: Fatty streak in the main artery of cholesterol-fed rabbits (Experimental Example 7, Step 2); type: in vivo, rabbit; conditions: 8 weeks; for Proportion of stained region (fatty streak region) per unit area of the artery: 1% cholesterol + RC4 diet, lovastatin 0.003 wt %, BN compounds 0.025 wt %, average ± standard deviation; for Proportion of the fatty streak region compared to the control group: 1% cholesterol diet
Description: The rabbits raised in Step 1 were sacrificed and their chests were incised. The incision was performed downward to the diaphragm along the aortic arch and the fat surrounding the main artery was removed. The main artery was incised in the middle along the longitudinal axis from the second aortic intercostal artery anastomoses to the seventh aortic intercostal artery anastomoses and fixed with 10% neutral buffered formalin for 24 hours. Then, the incised main artery was pinned to a dish for staining of fatty streaks according to the method of Esper, E., et al. {J. Lab. Clin. Med., 121, 103-110 (1993)}. The artery was washed with propylene glycol three times for 2 minutes respectively. The artery was stained for 30 minutes with a saturated solution of Oil Red O (ORO, Sigma Co.) dissolved in propylene glycol. Thereafter, the artery was washed with 85% propylene glycol twice for 3 minutes respectively to remove the remaining staining solution and, then the artery was washed with physiological saline once. The artery was photographed and the photograph was traced. The proportion (%) of stained region (fatty streak region) per unit area of the artery was determined with an image analyzer (LEICA, Q-600, Germany). The significant differences between the test groups were tested by student t-test using Microsoft excel (version 7.0) program

| Compound | HMG-CoA reductase (HMG-CoA reductase) | Inhibition of HMG-CoA reductase activity (HMG-CoA reductase) | Pathological changes in lung, myocardium, kidney and muscle (microscope) [1] | Proportion of stained region (fatty streak region) per unit area of the artery [2] | Proportion of the fatty streak region compared to the control group [2] |
| --- | --- | --- | --- | --- | --- |
| COC(=O)C(CO)NC(=O)CCc1ccc(O)c(O)c1 (centres unmarked) [BN30063, 2-[3-(3,4-dihydroxyphenyl)propionylamino]-3-hydroxy propionic acid methyl ester] | 196.11 | 20.09% | no pathogenic abnormality was found | 44.8 ± 10.5% | significantly lower |
| CC[C@H](C)C(=O)O[C@H]1C[C@@H](C)C=C2C=C[C@H](C)[C@H](CC[C@@H]3C[C@@H](O)CC(=O)O3)[C@H]21 [Lovastatin, reference compound] | 173.25 | 29.40% | – | 30.3 ± 12^b % | significantly lower |
| O=C(O)CC(NC(=O)CCc1ccc(O)c(O)c1)C(=O)O (centres unmarked) [BN30067, 2-[3-(3,4-dihydroxyphenyl)propionylamino]-succinic acid] | 136.15 | – | no pathogenic abnormality was found | 43.0 ± 13.9^b % | significantly lower |
| CC(C)CC(NC(=O)CCc1ccc(O)c(O)c1)C(=O)O (centres unmarked) [BN30064, 2-[3-(3,4-dihydroxyphenyl)propionylamino]-4-methyl pentanoic acid] | 124.74 | – | no pathogenic abnormality was found | 31.2 ± 11.6^b % | significantly lower |
